We go through 30 molecules from patent US11524968B2, “Heterocyclic compound as a protein kinase inhibitor” (HK inno.N Corporation, priority 2017, dated 2022).

The target of this assay is JAK1 (Homo sapiens (Human), UniProt P23458). The assay can be described thus: Analysis of JAK1 activity inhibition ability (ADP-Glo Kinase Assay). The format is biochemical. The following applies: JAK1 enzyme, ADP-Glo luminescence, ATP 250 uM, IRS-itide substrate, 30° C. 40 minutes; read-out: IC50. Put shortly: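 JAK1 enzyme, IRS-itide substrate (40 ng/mL) and 250 uM ATP, both as prepared in kinase buffer (Tris-HCl pH 7.5, MgCl2, BSA, DTT), reacted with compound 40 min at 30 °C. ADP formed was detected by ADP-Glo luminescence; IC50 is the concentration giving 50% inhibition versus control.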
JAK1, sequence (P23458 whole entry): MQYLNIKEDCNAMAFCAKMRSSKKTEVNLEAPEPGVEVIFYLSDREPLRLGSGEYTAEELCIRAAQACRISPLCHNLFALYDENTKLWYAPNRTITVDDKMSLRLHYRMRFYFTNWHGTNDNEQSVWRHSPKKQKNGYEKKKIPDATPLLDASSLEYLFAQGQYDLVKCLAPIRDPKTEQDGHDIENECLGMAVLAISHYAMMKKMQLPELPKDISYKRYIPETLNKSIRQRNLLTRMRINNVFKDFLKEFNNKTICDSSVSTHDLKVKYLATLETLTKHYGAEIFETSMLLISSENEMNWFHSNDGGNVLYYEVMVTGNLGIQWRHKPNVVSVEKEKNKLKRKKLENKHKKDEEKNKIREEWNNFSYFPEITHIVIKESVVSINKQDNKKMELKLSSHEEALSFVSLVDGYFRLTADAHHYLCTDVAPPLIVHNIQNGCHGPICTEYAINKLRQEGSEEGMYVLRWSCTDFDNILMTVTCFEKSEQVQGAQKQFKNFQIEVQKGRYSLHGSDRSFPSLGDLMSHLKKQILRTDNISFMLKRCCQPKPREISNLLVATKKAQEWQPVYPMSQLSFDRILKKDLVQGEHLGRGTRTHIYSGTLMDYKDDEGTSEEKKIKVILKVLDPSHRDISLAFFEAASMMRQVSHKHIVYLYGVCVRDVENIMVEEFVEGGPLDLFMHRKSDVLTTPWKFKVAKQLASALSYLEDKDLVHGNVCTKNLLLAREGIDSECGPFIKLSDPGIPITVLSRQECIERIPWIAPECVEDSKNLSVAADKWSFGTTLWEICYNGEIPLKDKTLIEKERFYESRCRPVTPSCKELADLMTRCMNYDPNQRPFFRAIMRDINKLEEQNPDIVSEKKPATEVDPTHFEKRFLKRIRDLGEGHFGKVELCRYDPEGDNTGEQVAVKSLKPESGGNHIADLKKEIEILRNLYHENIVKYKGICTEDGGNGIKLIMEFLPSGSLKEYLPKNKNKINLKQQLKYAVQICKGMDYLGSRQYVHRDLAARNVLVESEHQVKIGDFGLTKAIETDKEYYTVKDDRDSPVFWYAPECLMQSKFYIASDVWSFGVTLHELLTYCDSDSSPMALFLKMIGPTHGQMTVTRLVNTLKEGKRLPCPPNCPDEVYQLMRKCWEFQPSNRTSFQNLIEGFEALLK
On the technique in general: In ADP-Glo the light output rises with the ADP produced.

With `N#CCCn1cc(-c2cc(NC(=O)C3CC3)nc3[nH]ccc23)cn1` [Example 477, N-(4-(1-(2-cyanoethyl)-1H-pyrazol-4-yl)-1H-pyrrolo[2,3-b]pyridin-6-yl)cyclopropanecarboxamide], the IC50 – broadly, the point on the concentration scale where inhibition reaches its midpoint – was below 20 nM. Consider `O=C(Nc1cc(-c2cnn(CC3CC3)c2)c2cc[nH]c2n1)C1CC1` [Example 478, N-(4-(1-(cyclopropylmethyl)-1H-pyrazol-4-yl)-1H-pyrrolo[2,3-b]pyridin-6-yl)cyclopropanecarboxamide], for which the IC50 is below 20 nM.

In the case of `O=C(Nc1cc(-c2cnn(Cc3ccccc3)c2)c2cc[nH]c2n1)C1CC1` [Example 479, N-(4-(1-benzyl-1H-pyrazol-4-yl)-1H-pyrrolo[2,3-b]pyridin-6-yl)cyclopropanecarboxamide], the IC50 fell in the range of 20 to 200 nM. Consider `Cc1nn(CCC#N)c(C)c1-c1cc(NC(=O)C2CC2)nc2[nH]ccc12` [Example 480, N-(4-(1-(2-cyanoethyl)-3,5-dimethyl-1H-pyrazol-4-yl)-1H-pyrrolo[2,3-b]pyridin-6-yl)cyclopropanecarboxamide], for which the IC50 lay in the range of 20 to 200 nM. On to `O=C(Nc1cc(-c2cn(Cc3ccccc3)nn2)c2cc[nH]c2n1)C1CC1` [Example 481, N-(4-(1-benzyl-1H-1,2,3-triazol-4-yl)-1H-pyrrolo[2,3-b]pyridin-6-yl)cyclopropanecarboxamide], for which the IC50 fell in the range of 20 to 200 nM. The value for `N#Cc1ccc(Cn2cc(-c3nc(NC(=O)C4CC4)nc4[nH]ccc34)cn2)cn1` [Example 482, N-(4-(1-((6-cyanopyridin-3-yl)methyl)-1H-pyrazol-4-yl)-7H-pyrrolo[2,3-d]pyrimidin-2-yl)cyclopropanecarboxamide] was above 200 nM. As for `N#CCCn1ccc(-c2cc(NC(=O)C3CC3)nc3[nH]ccc23)c1` [Example 483, N-(4-(1-(2-cyanoethyl)-1H-pyrrol-3-yl)-1H-pyrrolo[2,3-b]pyridin-6-yl)cyclopropanecarboxamide], the IC50 is below 20 nM. The value for `O=C(Nc1cc(C2=CCN(CCN3CCOCC3)C2)c2cc[nH]c2n1)C1CC1` [Example 484, N-(4-(1-(2-morpholinoethyl)-2,5-dihydro-1H-pyrrol-3-yl)-1H-pyrrolo[2,3-b]pyridin-6-yl)cyclopropanecarboxamide] was above 200 nM; that for `N#CCCN1CC=C(c2cc(NC(=O)C3CC3)nc3[nH]ccc23)C1` [Example 485, N-(4-(1-(2-cyanoethyl)-2,5-dihydro-1H-pyrrol-3-yl)-1H-pyrrolo[2,3-b]pyridin-6-yl)cyclopropanecarboxamide] was 20 to 200 nM.

As for `N#CCCN1CC=C(c2cc(NC(=O)C3CC3)nc3[nH]ccc23)CC1` [Example 486, N-(4-(1-(2-cyanoethyl)-1,2,3,6-tetrahydropyridin-4-yl)-1H-pyrrolo[2,3-b]pyridin-6-yl)cyclopropanecarboxamide], the IC50 was in the range of 20 to 200 nM. The same measure for `CC1(CN2CC=C(c3cc(NC(=O)C4CC4)nc4[nH]ccc34)CC2)COC1` [Example 487, N-(4-(1-((3-methyloxetan-3-yl)methyl)-1,2,3,6-tetrahydropyridin-4-yl)-1H-pyrrolo[2,3-b]pyridin-6-yl)cyclopropanecarboxamide]: above 200 nM. The value for `O=C(Nc1cc(C2=CCN(Cc3ccns3)CC2)c2cc[nH]c2n1)C1CC1` [Example 488, N-(4-(1-(isothiazol-5-ylmethyl)-1,2,3,6-tetrahydropyridin-4-yl)-1H-pyrrolo[2,3-b]pyridin-6-yl)cyclopropanecarboxamide] was below 20 nM; that for `O=C(Nc1cc(C2=CCN(CC3CC3(F)F)CC2)c2cc[nH]c2n1)C1CC1` (stereo not drawn) [Example 489, N-(4-(1-((2,2-difluorocyclopropyl)methyl)-1,2,3,6-tetrahydropyridin-4-yl)-1H-pyrrolo[2,3-b]pyridin-6-yl)cyclopropanecarboxamide] was 20 to 200 nM.

Take `N#CC1CC(N2CC=C(c3cc(NC(=O)C4CC4)nc4[nH]ccc34)CC2)C1` (stereo not drawn) [Example 490, N-(4-(1-(3-cyanocyclobutyl)-1,2,3,6-tetrahydropyridin-4-yl)-1H-pyrrolo[2,3-b]pyridin-6-yl)cyclopropanecarboxamide]: the IC50 was 20 to 200 nM. The value for `O=C(Nc1cc(C2=CCC(NC3CCN(C(=O)c4cc(F)cc(F)c4)CC3)CC2)c2cc[nH]c2n1)C1CC1` (stereo not drawn) [Example 491, N-(4-(4-((1-(3,5-difluorobenzoyl)piperidin-4-yl)amino)cyclohex-1-en-1-yl)-1H-pyrrolo[2,3-b]pyridin-6-yl)cyclopropanecarboxamide] was above 200 nM; that for `O=C(Nc1cc(C2=CCC(NC3CCN(C(=O)C4CCCCC4)CC3)CC2)c2cc[nH]c2n1)C1CC1` (stereo not drawn) [Example 492, N-(4-(4-((1-(cyclohexanecarbonyl)piperidin-4-yl)amino)cyclohex-1-en-1-yl)-1H-pyrrolo[2,3-b]pyridin-6-yl)cyclopropanecarboxamide] was above 200 nM; that for `O=C(Nc1cc(C2=CCC(NC3CCN(C(=O)c4ccnc(F)c4)CC3)CC2)c2cc[nH]c2n1)C1CC1` (stereo not drawn) [Example 493, N-(4-(4-((1-(2-fluoroisonicotinoyl)piperidin-4-yl)amino)cyclohex-1-en-1-yl)-1H-pyrrolo[2,3-b]pyridin-6-yl)cyclopropanecarboxamide] was 20 to 200 nM.

`O=C(Nc1cc(C2=CCC(NC3CCN(C(=O)c4ccc([N+](=O)[O-])cc4)CC3)CC2)c2cc[nH]c2n1)C1CC1` (stereo not drawn) [Example 494, N-(4-(4-((1-(4-nitrobenzoyl)piperidin-4-yl)amino)cyclohex-1-en-1-yl)-1H-pyrrolo[2,3-b]pyridin-6-yl)cyclopropanecarboxamide]: the IC50 was above 200 nM. The value for `O=C(Nc1cc(C2=CCC(NC3CN(C(=O)c4cc(F)cc(F)c4)C3)CC2)c2cc[nH]c2n1)C1CC1` (stereo not drawn) [Example 495, N-(4-(4-((1-(3,5-difluorobenzoyl)azetidin-3-yl)amino)cyclohex-1-en-1-yl)-1H-pyrrolo[2,3-b]pyridin-6-yl)cyclopropanecarboxamide] was 20 to 200 nM; that for `O=C(Nc1cc(C2=CCC(NC3CN(C(=O)c4ccnc(F)c4)C3)CC2)c2cc[nH]c2n1)C1CC1` (stereo not drawn) [Example 496, N-(4-(4-((1-(2-fluoroisonicotinoyl)azetidin-3-yl)amino)cyclohex-1-en-1-yl)-1H-pyrrolo[2,3-b]pyridin-6-yl)cyclopropanecarboxamide] was above 200 nM. Consider `COc1cc(C(=O)N2CC(NC3CC=C(c4cc(NC(=O)C5CC5)nc5[nH]ccc45)CC3)C2)ccn1` (stereo not drawn) [Example 497, N-(4-(4-((1-(2-methoxyisonicotinoyl)azetidin-3-yl)amino)cyclohex-1-en-1-yl)-1H-pyrrolo[2,3-b]pyridin-6-yl)cyclopropanecarboxamide], for which the IC50 lay in the range of 20 to 200 nM. Take `O=C(Nc1cc(-c2ccc(NC3CCN(C(=O)Nc4ccccc4)CC3)c(F)c2)c2cc[nH]c2n1)C1CC1` [Example 498, 4-((4-(6-(cyclopropanecarboxamido)-1H-pyrrolo[2,3-b]pyridin-4-yl)-2-fluorophenyl)amino)-N-phenylpiperidine-1-carboxamide]: the IC50 was 20 to 200 nM. The same measure for `O=C(Nc1cc(-c2ccc(NC3CCN(C(=O)c4cc(F)cc(F)c4)CC3)c(F)c2)c2cc[nH]c2n1)C1CC1` [Example 499, N-(4-(4-((1-(3,5-difluorobenzoyl)piperidin-4-yl)amino)-3-fluorophenyl)-1H-pyrrolo[2,3-b]pyridin-6-yl)cyclopropanecarboxamide]: above 200 nM.

For `O=C(Nc1cc(-c2ccc(NC3CCN(C(=O)c4ccnc(F)c4)CC3)c(F)c2)c2cc[nH]c2n1)C1CC1` [Example 500, N-(4-(3-fluoro-4-((1-(2-fluoroisonicotinoyl)piperidin-4-yl)amino)phenyl)-1H-pyrrolo[2,3-b]pyridin-6-yl)cyclopropanecarboxamide], the IC50 is above 200 nM. The same measure for `O=C(Nc1cc(-c2ccc(NC3CCN(C(=O)Nc4ccc(F)cc4F)CC3)c(F)c2)c2cc[nH]c2n1)C1CC1` [Example 501, 4-((4-(6-(cyclopropanecarboxamido)-1H-pyrrolo[2,3-b]pyridin-4-yl)-2-fluorophenyl)amino)-N-(2,4-difluorophenyl)piperidine-1-carboxamide]: 20 to 200 nM; for `C[C@H]1CC(Nc2ccc(-c3cc(NC(=O)C4CC4)nc4[nH]ccc34)cc2)CCN1C(=O)c1cc(F)cc(F)c1` (stereo partly drawn) [Example 502, N-(4-(4-(((2S)-1-(3,5-difluorobenzoyl)-2-methylpiperidin-4-yl)amino)phenyl)-1H-pyrrolo[2,3-b]pyridin-6-yl)cyclopropanecarboxamide]: above 200 nM. The value for `C[C@H]1CC(Nc2ccc(-c3cc(NC(=O)C4CC4)nc4[nH]ccc34)cc2)CCN1C(=O)c1ccnc(F)c1` (stereo partly drawn) [Example 503, N-(4-(4-(((2S)-1-(2-fluoroisonicotinoyl)-2-methylpiperidin-4-yl)amino)phenyl)-1H-pyrrolo[2,3-b]pyridin-6-yl)cyclopropanecarboxamide] was above 200 nM. The value for `C[C@H]1CC(Nc2ccc(-c3cc(NC(=O)C4CC4)nc4[nH]ccc34)cc2)CCN1C(=O)NCC(F)(F)F` (stereo partly drawn) [Example 504, (2S)-4-((4-(6-(cyclopropanecarboxamido)-1H-pyrrolo[2,3-b]pyridin-4-yl)phenyl)amino)-2-methyl-N-(2,2,2-trifluoroethyl)piperidine-1-carboxamide] was above 200 nM; that for `O=C(Nc1cc(-c2ccc(NC3CCN(C(=O)NCC(F)(F)F)CC3)c(F)c2)c2cc[nH]c2n1)C1CC1` [Example 505, 4-((4-(6-(cyclopropanecarboxamido)-1H-pyrrolo[2,3-b]pyridin-4-yl)-2-fluorophenyl)amino)-N-(2,2,2-trifluoroethyl)piperidine-1-carboxamide] was 20 to 200 nM; that for `C[C@H]1CC(Nc2ccc(-c3cc(NC(=O)C4CC4)nc4[nH]ccc34)cc2)CCN1C(=O)Nc1ccc(F)cc1F` (stereo partly drawn) [Example 506, (2S)-4-((4-(6-(cyclopropanecarboxamido)-1H-pyrrolo[2,3-b]pyridin-4-yl)phenyl)amino)-N-(2,4-difluorophenyl)-2-methylpiperidine-1-carboxamide] was 20 to 200 nM.
